Laboratory results from publication PMC10377586 (Biomolecules, 2023).

What was measured:
human MAO-A = biological target: T1, human MAO-A (Homo sapiens, UniProt P21397); assay: Amplex Red monoamine oxidase assay, MAO-A; format: biochemical; details: for IC50: human recombinant MAO-A, read-out: MAO-A IC50 ± SEM; for inhibition at 1 µM: read-out: MAO-A % Inhibition ± SEM at 1 µM
T1 construct: purchased Sigma Aldrich M7316
T1 sequence (P21397 1-527): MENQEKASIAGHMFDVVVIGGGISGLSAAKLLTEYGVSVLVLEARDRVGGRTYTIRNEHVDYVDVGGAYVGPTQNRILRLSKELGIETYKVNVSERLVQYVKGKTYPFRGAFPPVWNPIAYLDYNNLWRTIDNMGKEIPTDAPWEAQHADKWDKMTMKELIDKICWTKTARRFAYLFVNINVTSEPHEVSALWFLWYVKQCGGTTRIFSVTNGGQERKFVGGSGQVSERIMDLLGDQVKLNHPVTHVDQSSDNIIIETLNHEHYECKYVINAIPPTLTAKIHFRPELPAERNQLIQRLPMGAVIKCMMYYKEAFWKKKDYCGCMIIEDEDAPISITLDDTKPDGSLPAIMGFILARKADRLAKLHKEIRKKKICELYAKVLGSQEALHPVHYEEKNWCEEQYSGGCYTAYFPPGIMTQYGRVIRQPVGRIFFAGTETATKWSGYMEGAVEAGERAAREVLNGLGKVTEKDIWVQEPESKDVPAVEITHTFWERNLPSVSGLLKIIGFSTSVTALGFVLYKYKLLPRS
Procedure: The final compounds were evaluated in vitro for their human MAO-B (hMAO-B) inhibitory potencies, and selected structures were also investigated for human MAO-A (hMAO-A) inhibition.
Inhibition activity of compounds at MAO enzyme isoforms was measured via a fluorometric method using the Amplex Red Monoamine Oxidase Assay (ThermoFisher Scientific, Waltham, MA, USA #A12214) in a 96-well plates. Human recombinant MAO-B and MAO-A enzymes (Sigma Aldrich, St. Louis, MO, USA #M7441 and #M7316) were used. The assays were conducted as previously described.

rat A1 (rA1) ARs = biological target: T2, rat A1 (rA1) ARs (Rattus norvegicus, UniProt P25099); assay: Radioligand binding [3H]CCPA, rat brain cortical membranes; details: read-out: rA1 [3H]CCPA Ki ± SEM
T2 construct: using rat brain cortical membrane preparations for A1; tissue Pel Freez; host or cells: rat brain cortex membranes
T2 sequence (P25099 1-326): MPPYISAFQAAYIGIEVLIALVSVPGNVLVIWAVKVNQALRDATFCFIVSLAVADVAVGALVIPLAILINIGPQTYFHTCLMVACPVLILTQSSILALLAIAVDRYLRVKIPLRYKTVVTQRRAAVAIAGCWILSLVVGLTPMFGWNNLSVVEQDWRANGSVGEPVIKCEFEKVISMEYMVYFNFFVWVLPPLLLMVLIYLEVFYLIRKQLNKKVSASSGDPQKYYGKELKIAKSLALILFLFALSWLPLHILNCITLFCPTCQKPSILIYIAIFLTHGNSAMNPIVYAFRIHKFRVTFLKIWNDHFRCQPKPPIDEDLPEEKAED
Procedure: (§1) The final compounds were tested in radioligand binding assays to evaluate their affinity for all four ARs subtypes (see Table 2). Rat brain cortical membrane preparations were used as a source of rat A1 (rA1) ARs, and rat brain striatal membrane preparations served as a source of rat A2A (rA2A) ARs. For A2B- and A3AR assays, membrane preparations of Chinese hamster ovary (CHO) cells recombinantly expressing either human A2B (hA2B) or human A3 (hA3) ARs were employed.
(§2) Adenosine receptor radioligand binding assays were performed as previously described using rat brain cortical membrane preparations for A1 and rat brain striatal membrane preparations for A2A AR assays. Frozen rat brains (unstripped) were obtained from Pel Freez, Rogers, AR, USA. For assays at human AR subtypes, cell membranes of CHO cells recombinantly expressing the respective receptor were used. The following compounds were employed as radioligands: A1: [^3H]2-chloro-N^6-cyclopentyladenosine ([^3H]CCPA); A2A: [^3H]3-(3-hydroxypropyl)-7-methyl-8-(m-methoxystyryl)-1-propargylxanthine ([^3H]MSX-2); A2B: [^3H]8-(4-(4-(4-chlorophenyl)piperazine-1-sulfonyl)phenyl)-1-propylxanthine ([^3H]PSB-603); A3: [^3H]phenyl-8-ethyl-4-methyl-(8R)-4,5,7,8-tetrahydro-1H-imidazo[2,1-i]purine-5-one ([^3H]PSB-11). Initially, a single high concentration of compound was tested (1 µM). For potent compounds, full concentration–inhibition curves were determined using six to ten different concentrations of test compound spanning three orders of magnitude. At least three independent experiments were performed. Data were analyzed using GraphPad PRISM program version 4.0 or higher (Graph Pad, San Diego, CA, USA).

rat A2A (rA2A) ARs = biological target: T3, rat A2A (rA2A) ARs (Rattus norvegicus, UniProt P30543); assay: Radioligand binding [3H]MSX-2, rat brain striatal membranes; details: read-out: rA2A [3H]MSX-2 Ki ± SEM
T3 construct: rat brain striatal membrane preparations for A2A AR assays; tissue Pel Freez; host or cells: rat brain striatum membranes
T3 sequence (P30543 whole entry): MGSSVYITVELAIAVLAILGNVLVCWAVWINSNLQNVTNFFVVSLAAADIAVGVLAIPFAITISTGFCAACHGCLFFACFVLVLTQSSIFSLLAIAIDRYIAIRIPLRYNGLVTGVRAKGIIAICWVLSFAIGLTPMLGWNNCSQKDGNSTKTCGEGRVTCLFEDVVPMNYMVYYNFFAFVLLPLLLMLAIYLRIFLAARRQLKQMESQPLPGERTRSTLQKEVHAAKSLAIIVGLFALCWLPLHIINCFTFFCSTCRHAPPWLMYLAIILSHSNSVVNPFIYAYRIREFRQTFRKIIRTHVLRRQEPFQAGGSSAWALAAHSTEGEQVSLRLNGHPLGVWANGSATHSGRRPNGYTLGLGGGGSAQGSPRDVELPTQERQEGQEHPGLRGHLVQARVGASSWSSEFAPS
Procedure: as §1, §2

human A3 (hA3) ARs = biological target: T4, human A3 (hA3) ARs (Homo sapiens, UniProt P0DMS8); assay: Radioligand binding [3H]PSB-11, CHO cell membranes; details: for Ki: CHO cell membranes, read-out: hA3 [3H]PSB-11 Ki ± SEM; for inhibition at 1 µM: read-out: hA3 [3H]PSB-11 % inhibition ± SEM at 1 µM
T4 construct: expressed in transfected cells; host or cells: CHO cells (membranes)
T4 sequence (P0DMS8 1-318): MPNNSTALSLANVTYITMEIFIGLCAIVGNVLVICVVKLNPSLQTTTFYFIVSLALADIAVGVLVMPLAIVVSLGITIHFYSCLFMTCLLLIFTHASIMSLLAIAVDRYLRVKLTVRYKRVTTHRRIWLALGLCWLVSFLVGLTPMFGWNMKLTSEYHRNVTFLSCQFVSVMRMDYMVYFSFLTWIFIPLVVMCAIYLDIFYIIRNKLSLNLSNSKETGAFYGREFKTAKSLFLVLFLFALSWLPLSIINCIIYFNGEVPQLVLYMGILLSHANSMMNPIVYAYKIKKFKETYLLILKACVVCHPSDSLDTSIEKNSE
Procedure: as §1, §2

IC50 (human MAO-A) [nM]	inhibition at 1 µM (human MAO-A) [%]	Ki (rat A1 (rA1) ARs) [nM]	Ki (rat A2A (rA2A) ARs) [nM]	Ki (human A3 (hA3) ARs) [nM]	inhibition at 1 µM (human A3 (hA3) ARs) [%]	melting point [°C]	SMILES
> 1000	29	≥ 10000	507 ± 109	> 1000	-6	213 to 215	Cn1c(=O)c2c(nc3n2CCCN3CCc2ccc(O)c(O)c2)n(C)c1=O [Compound 20a, 9-(3,4-Dihydroxyphenethyl)-1,3-dimethyl-6,7,8,9-tetrahydropyrimido[2,1-f]purine-2,4(1H,3H)-dione]
246 ± 72		> 10000	> 10000	> 1000	3	216 to 218	CCCCCCn1c(NCCc2ccc(O)c(O)c2)nc2c1c(=O)n(C)c(=O)n2C [Compound 11i, 8-((3,4-Dihydroxyphenethyl)amino)-7-hexyl-1,3-dimethyl-3,7-dihydro-1H-purine-2,6-dione]
≥ 1000	47	857 ± 43	1150 ± 140	> 1000	12	180 to 182	CC(C)n1c(NCCc2ccc(O)c(O)c2)nc2c1c(=O)n(C)c(=O)n2C [Compound 11d, 8-((3,4-Dihydroxyphenethyl)amino)-7-isopropyl-1,3-dimethyl-3,7-dihydro-1H-purine-2,6-dione]
> 1000	44	1980 ± 290	370 ± 63	> 1000	-1	204 to 206	Cn1c(=O)c2c(nc(NCCc3ccc(O)c(O)c3)n2C)n(C)c1=O [Compound 11a, 8-((3,4-Dihydroxyphenethyl)amino)-1,3,7-trimethyl-3,7-dihydro-1H-purine-2,6-dione]
891 ± 63		479 ± 95	672 ± 83	> 1000	-5	225 to 226	CCn1c(NCCc2ccc(O)c(O)c2)nc2c1c(=O)n(C)c(=O)n2C [Compound 11b, 8-((3,4-Dihydroxyphenethyl)amino)-7-ethyl-1,3-dimethyl-3,7-dihydro-1H-purine-2,6-dione]
> 1000	41	124 ± 22	1380 ± 120	> 1000	-2	218 to 220	Cn1c(=O)c2c(nc(NCCc3ccc(O)c(O)c3)n2CCOc2ccccc2)n(C)c1=O [Compound 11l, 8-((3,4-Dihydroxyphenethyl)amino)-1,3-dimethyl-7-(2-phenoxyethyl)-3,7-dihydro-1H-purine-2,6-dione]
> 1000	44	1050 ± 170	234 ± 55	> 1000	-2	232 to 235	Cn1c(=O)c2c(nc3n2CCCCN3CCc2ccc(O)c(O)c2)n(C)c1=O [Compound 20b, 10-(3,4-Dihydroxyphenethyl)-1,3-dimethyl-7,8,9,10-tetrahydro-1H-[1, 3]diazepino[2,1-f]purine-2,4(3H,6H)-dione]

SMILES	IC50 (human MAO-A) [nM]	inhibition at 1 µM (human MAO-A) [%]	Ki (rat A1 (rA1) ARs) [nM]	Ki (rat A2A (rA2A) ARs) [nM]	Ki (human A3 (hA3) ARs) [nM]	inhibition at 1 µM (human A3 (hA3) ARs) [%]	melting point [°C]
CCCCn1c(=O)c2c(nc(NCCc3ccc(O)c(O)c3)n2CCC)n(CCCC)c1=O [Compound 13, 1,3-Dibutyl-8-((3,4-dihydroxyphenethyl)amino)-7-propyl-3,7-dihydro-1H-purine-2,6-dione]	> 1000	36	100 ± 15	1320 ± 250	> 1000	17	
